Source: patent US6469002B1, “Imidazolidine compounds” (Millennium Pharmaceuticals, Inc., priority 2001, dated 2002)

Target: T1, CXCR3 (Homo sapiens, UniProt P49682)
T1 construct: expressed in transfected cells
T1 sequence (P49682 1-368): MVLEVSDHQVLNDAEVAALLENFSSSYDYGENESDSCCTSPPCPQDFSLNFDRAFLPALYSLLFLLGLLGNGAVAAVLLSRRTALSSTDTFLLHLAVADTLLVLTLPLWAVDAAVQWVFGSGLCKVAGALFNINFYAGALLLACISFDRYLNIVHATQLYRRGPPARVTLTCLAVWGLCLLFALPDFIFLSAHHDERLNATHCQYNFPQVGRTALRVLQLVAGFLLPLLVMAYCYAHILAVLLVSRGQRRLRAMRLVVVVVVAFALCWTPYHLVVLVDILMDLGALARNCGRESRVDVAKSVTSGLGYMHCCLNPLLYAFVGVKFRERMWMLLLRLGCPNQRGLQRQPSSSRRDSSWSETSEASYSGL
Assay: CXCR3/IP-10 radioligand binding (125I-IP-10 competition, CXCR3.L1/2 cell membranes)
Conditions: test compound 10 μmol/L, 125I-labeled IP-10 binding to CXCR3.L1/2 transfectant cell membrane
From the text: The activity of the compounds of the present invention can be assessed using a suitable assay, such as a receptor binding assay, a chemotaxis assays, an extracellular acidification assay or a calcium flux assay (see, for example, Hesselgesser et al., J. Biol. Chem. 273(25):15687-15692 (1998) and WO 98/02151). For example, as described herein, small organic molecule antagonists of CXCR3/IP-10 binding have been identified utilizing cells engineered to express recombinant human CXCR3 (CXCR3.L1/2) and which bind ^125I-IP-10 and chemotax in response to IP-10, Mig or I-TAC. Specifically, a high through-put receptor binding assay, which monitors ^125I-IP-10 binding to CXCR3.L1/2 cell membranes, was used to identify small molecule antagonists which block binding of IP-10, Mig or I-TAC to CXCR3.
CXCR3.L1/2 cells were pelleted by centrifugation and stored at −80° C. The cells were lysed by thawing and resuspending at about 1.5×10^7 cells/ml in a hypotonic buffer (5 m mol/L HEPES (pH 7.2), 2 mmol/L EDTA, 10 μg/ml each leupeptin, aprotinin, and chymostatin, and 100 μg/ml PMSF (all from Sigma, St. Louis)). Nuclei and cellular debris was removed by centrifugation ([…], at 4° C.) for 10 min. The supematant was transferred to chilled centrifuge tubes (Nalge, Rochester, N.Y.) and the membrane fraction was recovered by centrifugation (25,000 g at 4° C.) for 45 min. The membrane pellet was resuspended in freezing buffer (10 mM HEPES (pH 7.2), 300 mmol/L Sucrose, 5 μg/ml each of leupeptin, aprotinin, and chymostatin, and 10 μg/ml PMSF). The total protein concentration was determined using a coomassie blue staining protein concentration assay kit (BioRad). The membrane preparation was aliquoted and stored at −80° C. until time of use.
CXCR3/IP-10 binding was performed in 96-well polypropylene plates (Costar) in a final volume of 0.1 ml of HBB buffer (50 mmol/L Hepes pH 7.4, 1 mmol/L CaCl2, 5 mmol/L MgCl2, 0.02% sodium azide, 0.5% BSA (bovine serum albumin)) containing 1 to 5 μg of CXCR3.L1/2 transfectant cell membrane protein and 0.05 to 0.2 nmol/L ^125I-labeled IP-10 (NEN, Boston, Mass.). Competition binding experiments were performed by including variable concentrations of unlabeled IP-10 or test compound. Nonspecific binding was determined following the addition of a 250 nmol/L unlabelled IP-10. Samples were incubated for 60 min at room temperature, and bound and free tracer (^125I-IP10) were separated by filtration through 96-well GF/B filterplates (Packard) presoaked in 0.3% polyethyleneimine. The filters were washed in HBB further supplemented with 0.5 mol/L NaCl, dried, and the amount of bound radioactivity determined by liquid scintillation counting. The competition is presented as the percent specific binding as calculated by 100×[(S-B)/(T-B)], where S is the radioactivity bound for each sample, B is background binding, and T is total bound in the absence of competitors. Duplicates were used throughout the experiments.

Molecule	% inhibition at 10 μmol/L (Table 5) [%]	further results
1-[2-{N-Ethyl-N-(4-N,N-dimethylaminomethylbenzyl)amino}ethyl]-3-(1-naphthylmethyl)-2-imidazolidinylidenepropanedinitrile [Compound 9]	94	–
CCN(CCN1CCN(Cc2cccc3ccccc23)C1=C(C#N)C#N)Cc1ccc(CN2CCCCC2)cc1 [Compound 2, 1-[2-{N-Ethyl-N-(4-piperidinomethylbenzyl)amino}ethyl]-3-(1-naphthylmethyl)-2-imidazolidinylidenepropanedinitrile]	96	–
CCN(CCN1CCN(Cc2cccc3ccccc23)C1=C(C#N)C#N)Cc1ccc(OCCN2CCCC2)cc1 [Compound 4, 1-[2-{N-Ethyl-N-{4-(2-(1-pyrrolidinyl)ethoxy)benzyl}amino}ethyl]-3-(1-naphthylmethyl)-2-imidazolidinylidenepropanedinitrile]	76	–
CN(CCN1CCN(Cc2cccc3ccccc23)C1=C(C#N)C#N)Cc1ccc(CN2CCCCC2)cc1 [Compound 5, 1-[2-{N-Methyl-N-(4-piperidinomethylbenzyl)amino}ethyl]-3-(1-naphthylmethyl)-2-imidazolidinylidenepropanedinitrile]	99	–
CN(CCN1CCN(Cc2cccc3ccccc23)C1=C(C#N)C#N)Cc1cccc(CN2CCCCC2)c1 [Compound 6, 1-[2-{N-Methyl-N-(3-piperidinomethylbenzyl)amino}ethyl]-3-(1-naphthylmethyl)-2-imidazolidinylidenepropanedinitrile]	99	–
CCN(CCN1CCN(Cc2cccc3ccccc23)C1=C(C#N)C#N)Cc1ccc(CN2CCOCC2)cc1 [Compound 7, 1-[2-{N-Ethyl-N-(4-morpholinomethylbenzyl)amino}ethyl]-3-(1-naphthylmethyl)-2-imidazolidinylidenepropanedinitrile]	92	–
CCN(CCN1CCN(Cc2cccc3ccccc23)C1=C(C#N)C#N)Cc1ccc(CN2CCN(C)CC2)cc1 [Compound 8, 1-[2-{N-Ethyl-N-(4-(4-methylpiperazinyl)methylbenzyl)amino}ethyl]-3-(1-naphthylmethyl)-2-imidazolidinylidenepropanedinitrile]	86	–
CCCNCc1ccc(CN(CC)CCN2CCN(Cc3cccc4ccccc34)C2=C(C#N)C#N)cc1 [Compound 10, 1-[2-{N-Ethyl-N-(4-(N-propylamino)methylbenzyl)amino}ethyl]-3-(1-naphthylmethyl)-2-imidazolidinylidenepropanedinitrile]	100	–
CCN(CCN1CCN(Cc2cccc3ccccc23)C1=C(C#N)C#N)Cc1ccc(CN2CCN(CCO)CC2)cc1 [Compound 11, 1-[2-{N-Ethyl-(4-(4-(2-hydroxyethyl)piperazinyl)methylbenzyl)amino}ethyl]-3-(1-naphthylmethyl)-2-imidazolidinylidenepropanedinitrile]	91	–
CC(=O)N(CCN1CCN(Cc2cccc3ccccc23)C1=C(C#N)C#N)Cc1cccc(CN2CCCCC2)c1 [Compound 12, 1-[2-{N-Acetyl-N-(3-piperidinomethylbenzyl)amino}ethyl]-3-(1-naphthylmethyl)-2-imidazolidinylidenepropanedinitrile]	76	–
N#CC(C#N)=C1N(CCN(Cc2cccc(CN3CCCCC3)c2)C(=O)c2ccccc2)CCN1Cc1cccc2ccccc12 [Compound 13, 1-[2-{N-Benzoyl-N-(3-piperidinomethylbenzyl)amino}ethyl]-3-(1-naphthylmethyl)-2-imidazolidinylidenepropanedinitrile]	61	–
N#CC(C#N)=C1N(CCN(Cc2cccc(CN3CCCCC3)c2)C(=O)c2ccco2)CCN1Cc1cccc2ccccc12 [Compound 14, 1-[2-{N-Furoyl-N-(3-piperidinomethylbenzyl)amino}ethyl]-3-(1-naphthylmethyl)-2-imidazolidinylidenepropanedinitrile]	85	–
N#CC(C#N)=C1N(CCN(Cc2cccc(CN3CCCCC3)c2)C(=O)c2cccs2)CCN1Cc1cccc2ccccc12 [Compound 15, 1-[2-{N-(2-Thiophenecarbonyl)-N-(3-piperidinomethylbenzyl)amino}ethyl]-3-(1-naphthylmethyl)-2-imidazolidinylidenepropanedinitrile]	71	–
CS(=O)(=O)N(CCN1CCN(Cc2cccc3ccccc23)C1=C(C#N)C#N)Cc1cccc(CN2CCCCC2)c1 [Compound 16, 1-[2-{N-Methanesulfonyl-N-(3-piperidinomethylbenzyl)amino}ethyl]-3-(1-naphthylmethyl)-2-imidazolidinylidenepropanedinitrile]	89	–
CCN(CCN1CCN(Cc2cccc3ccccc23)C1=C(C#N)C#N)Cc1cccc(CN2CCCCC2)c1 [Compound 17, 1-[2-{N-Ethyl-N-(3-piperidinomethylbenzyl)amino}ethyl]-3-(1-naphthylmethyl)-2-imidazolidinylidenepropanedinitrile]	–	inhibition at 10 µM (Table 5): 96%
N#CC(C#N)=C1N(CCN(Cc2ccccc2)Cc2cccc(CN3CCCCC3)c2)CCN1Cc1cccc2ccccc12 [Compound 18, 1-[2-{N-Benzyl-N-(3-piperidinomethylbenzyl)amino}ethyl]-3-(1-naphthylmethyl)-2-imidazolidinylidenepropanedinitrile]	67	–
N#CC(C#N)=C1N(CCN(Cc2cccc(CN3CCCCC3)c2)Cc2cccc(CN3CCCCC3)c2)CCN1Cc1cccc2ccccc12 [Compound 19, 1-[2-{N,N-Bis(3-piperidinomethylbenzyl)amino}ethyl]-3-(1-naphthylmethyl)-2-imidazolidinylidenepropanedinitrile]	68	–
N#CC(C#N)=C1N(CCCNCc2ccc(CN3CCCCC3)cc2)CCN1Cc1cccc2ccccc12 [Compound 20, 1-[2-{N-(4-(1-Piperidinomethyl)benzyl)amino}propyl]-3-(1-naphthylmethyl)-2-imidazolidinylidenepropanedinitrile]	–	inhibition at 10 µM (Table 5): 74%
CCCNCc1ccc(CN(CC)CCN2CCN(Cc3cc(C)cc(C)c3)C2=C(C#N)C#N)cc1 [Compound 21, 1-[2-{N-Ethyl-N-(4-(1-propylaminomethyl)benzyl)amino}ethyl]-3-(3,5-dimethylbenzyl)-2-imidazolidinylidenepropanedinitrile]	–	inhibition at 10 µM (Table 5): 99%
CCCNCc1ccc(CNCCN2CCN(Cc3cc(C)cc(C)c3)C2=C(C#N)C#N)cc1 [Compound 22, 1-[2-{N-(4-(1-Propylaminomethyl)benzyl)amino}ethyl]-3-(3,5-dimethylbenzyl)-2-imidazolidinylidenepropanedinitrile]	–	inhibition at 10 µM (Table 6): 92%
CCN(CCN1CCN(Cc2cc(C)cc(C)c2)C1=C(C#N)C#N)Cc1ccc(CN2CCCCC2)cc1 [Compound 23, 1-[2-{N-Ethyl-N-(4-(1-piperidinomethyl)benzyl)amino}ethyl]-3-(3,5-dimethylbenzyl)-2-imidazolidinylidenepropanedinitrile]	–	inhibition at 10 µM (Table 6): 97%
CCN(CCN1CCN(Cc2cc(Cl)cc(Cl)c2)C1=C(C#N)C#N)Cc1ccc(CN2CCCCC2)cc1 [Compound 24, 1-[2-{N-Ethyl-N-(4-(1-piperidinomethyl)benzyl)amino}ethyl]-3-(3,5-dichlorobenzyl)-2-imidazolidinylidenepropanedinitrile]	–	inhibition at 10 µM (Table 6): 91%
